Test results: patent US7524853B2 (Solvay Pharmaceuticals B.V., priority 2003, dated 2009)

Legend:
Assay type in all cases: cell-based
[1] = target: T1, 17β-hydroxysteroid dehydrogenase type 1 (17β-HSD type 1) (Homo sapiens, UniProt P14061); assay: Inhibition of 17β-HSD type 1 in MCF-7 cells stably expressing the isoenzyme (tritium labeled estrone conversion, HPLC); details: MCF-7 cells expressing 17β-HSD type 1, 2 nM tritium labeled estrone; for inhibition at 1 µM / inhibition at 10 µM: MCF7; for inhibition at 1 µM: read-out: % Inhibition HSD1 1 μM; for inhibition at 10 µM: read-out: % Inhibition HSD1 10 μM
T1 construct: expressed in transfected cells; host or cells: MCF-7
T1 sequence (P14061 1-328): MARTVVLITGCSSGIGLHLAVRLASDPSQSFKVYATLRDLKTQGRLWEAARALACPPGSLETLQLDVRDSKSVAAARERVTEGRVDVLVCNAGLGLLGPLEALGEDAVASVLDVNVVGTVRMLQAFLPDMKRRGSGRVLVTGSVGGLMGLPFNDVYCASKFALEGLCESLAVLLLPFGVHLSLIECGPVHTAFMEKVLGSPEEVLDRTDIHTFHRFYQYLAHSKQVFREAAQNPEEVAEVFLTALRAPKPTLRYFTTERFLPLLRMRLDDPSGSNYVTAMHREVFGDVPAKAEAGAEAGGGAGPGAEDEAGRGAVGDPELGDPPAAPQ
Summary of the method: (§1)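 Whole-cell MCF-7 lines, one isoenzyme each; substrate 2 nM ³H-estrone (type 1), ³H-estradiol (type 2) or ³H-androstenedione (type 3) in growth medium + compound at two concentrations. TCA stop, HPLC-radioflow read; % inhibition from reduced conversion vs no-compound control.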

[2] = target: T2, 17β-hydroxysteroid dehydrogenase type 2 (17β-HSD type 2) (Homo sapiens, UniProt P37059); assay: Inhibition of 17β-HSD type 2 in MCF-7 cells stably expressing the isoenzyme (tritium labeled estradiol conversion, HPLC); details: MCF-7 cells expressing 17β-HSD type 2, 2 nM tritium labeled estradiol; for inhibition at 1 µM / inhibition at 10 µM: MCF7; for inhibition at 1 µM: read-out: % Inhibition HSD2 1 μM; for inhibition at 10 µM: read-out: % Inhibition HSD2 10 μM
T2 construct: expressed in transfected cells; host or cells: MCF-7
T2 sequence (P37059 1-387): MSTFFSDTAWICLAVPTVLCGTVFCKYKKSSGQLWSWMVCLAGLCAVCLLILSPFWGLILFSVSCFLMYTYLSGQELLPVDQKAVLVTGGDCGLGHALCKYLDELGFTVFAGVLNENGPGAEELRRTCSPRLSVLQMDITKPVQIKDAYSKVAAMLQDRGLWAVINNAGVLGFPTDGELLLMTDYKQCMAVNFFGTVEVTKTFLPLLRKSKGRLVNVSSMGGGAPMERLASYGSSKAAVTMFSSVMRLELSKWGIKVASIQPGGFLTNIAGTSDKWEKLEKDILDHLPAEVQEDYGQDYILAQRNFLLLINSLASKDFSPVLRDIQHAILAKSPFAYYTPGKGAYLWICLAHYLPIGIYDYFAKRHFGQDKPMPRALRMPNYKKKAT
Summary of the method: as §1

[3] = target: T3, 17β-hydroxysteroid dehydrogenase type 3 (17β-HSD type 3) (Homo sapiens, UniProt P37058); assay: Inhibition of 17β-HSD type 3 in MCF-7 cells stably expressing the isoenzyme (tritium labeled androstenedione conversion, HPLC); details: MCF-7 cells expressing 17β-HSD type 3, 2 nM tritium labeled androstenedione; for inhibition at 1 µM / inhibition at 10 µM: MCF7; for inhibition at 1 µM: read-out: % Inhibition HSD3 1 μM; for inhibition at 10 µM: read-out: % Inhibition HSD3 10 μM
T3 construct: expressed in transfected cells; host or cells: MCF-7
T3 sequence (P37058 1-310): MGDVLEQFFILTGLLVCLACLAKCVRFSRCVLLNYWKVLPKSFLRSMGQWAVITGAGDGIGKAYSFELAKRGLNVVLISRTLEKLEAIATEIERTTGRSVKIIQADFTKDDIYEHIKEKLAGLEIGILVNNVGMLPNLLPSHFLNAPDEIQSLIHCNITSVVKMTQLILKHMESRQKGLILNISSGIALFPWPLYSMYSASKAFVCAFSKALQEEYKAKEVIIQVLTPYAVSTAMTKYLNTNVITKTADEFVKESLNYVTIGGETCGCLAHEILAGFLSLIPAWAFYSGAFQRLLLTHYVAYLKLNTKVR
Summary of the method: as §1

Row | Compound | inhibition at 1 µM ([1]; 1 μM test compound) [%] | inhibition at 10 µM ([1]; 10 μM test compound) [%] | inhibition at 1 µM ([2]; 1 μM test compound) [%] | inhibition at 10 µM ([2]; 10 μM test compound) [%] | inhibition at 1 µM ([3]; 1 μM test compound) [%] | inhibition at 10 µM ([3]; 10 μM test compound) [%] | % Inhibition HSD1 1 μM ([1]; 1 μM test compound) [%] | % Inhibition HSD1 10 μM ([1]; 10 μM test compound) [%] | % Inhibition HSD2 1 μM ([2]; 1 μM test compound) [%] | % Inhibition HSD2 10 μM ([2]; 10 μM test compound) [%] | % Inhibition HSD3 1 μM ([3]; 1 μM test compound) [%] | % Inhibition HSD3 10 μM ([3]; 10 μM test compound) [%]
1 | COc1cc(-c2nc3sc4c(c3c(=O)n2Cc2ccccc2)CCCC4O)cc(OC)c1OC (stereo not drawn) [No. 145, 3-Benzyl-8-hydroxy-2-(3,4,5-trimethoxyphenyl)-5,6,7,8-tetrahydro-3H-benzo[4,5]thieno[2,3-d]pyrimidin-4-one] | 23.6 | 21.2 | 25.9 | 25.7 | 19.2 | 21.6 | – | – | – | – | – | –
2 | CC(=O)OCc1nc2sc3c(c2c(=O)n1Cc1ccccc1)CCCC3=O [No. 30, Acetic acid 3-benzyl-4,8-dioxo-3,4,5,6,7,8-hexahydro-benzo[4,5]thieno[2,3-d]pyrimidin-2-ylmethyl ester] | 25.4 | 39.7 | 20.2 | 19.1 | -1.2 | 16.3 | – | – | – | – | – | –
3 | COCc1nc2sc3c(c2c(=O)n1Cc1ccccc1)CCC(C=O)=C3Cl [No. 34, 3-Benzyl-8-chloro-2-methoxymethyl-4-oxo-3,4,5,6-tetrahydro-benzo[4,5]thieno[2,3-d]pyrimidine-7-carbaldehyde] | 12.5 | 64.2 | -1.5 | 25.3 | 15.8 | 100 | – | – | – | – | – | –
4 | O=c1c2c(nc(CCC3CCCC3)n1CCc1cccs1)sc1c(O)cccc12 [No. 643] | – | – | – | – | – | – | 15.7 | 34.2 | 20.1 | 43.3 | 23.4 | 46.1
5 | COCc1nc2sc3c(c2c(=O)n1-c1ccccc1)CCCC3 [No. 36, 2-Methoxymethyl-3-phenyl-5,6,7,8-tetrahydro-3H-benzo[4,5]thieno[2,3-d]pyrimidin-4-one] | 20.7 | 22.4 | -6.8 | 28.7 | -0.9 | 7.6 | – | – | – | – | – | –
6 | COc1cc(-c2nc3sc4c(c3c(=O)n2CC(C)C)CCCC4)cc(OC)c1OC [No. 113, 3-Isobutyl-2-(3,4,5-trimethoxyphenyl)-5,6,7,8-tetrahydro-3H-benzo[4,5]thieno[2,3-d]pyrimidin-4-one] | 22.2 | 57.6 | 8.2 | 7.7 | 2.7 | 48.9 | – | – | – | – | – | –
7 | O=c1c2c3c(sc2nc(CO)n1-c1ccccc1)CCCC3 [No. 38, 2-Hydroxymethyl-3-phenyl-5,6,7,8-tetrahydro-3H-benzo[4,5]thieno[2,3-d]pyrimidin-4-one] | 0.3 | 23.6 | 11.4 | 33.4 | 14.2 | 17.6 | – | – | – | – | – | –
8 | CCCc1nc2sc3c(c2c(=O)n1Cc1ccc(Br)o1)CCC(Br)(Br)C3=O [No. 104, 7,7-Dibromo-3-(5-bromofuran-2-ylmethyl)-2-propyl-6,7-dihydro-3H,5H-benzo[4,5]thieno[2,3-d]pyrimidine-4,8-dione] | 20.2 | 42.6 | 26.6 | 47.9 | -5 | 51.4 | – | – | – | – | – | –
9 | COc1cc(-c2nc3sc4c(c3c(=O)n2Cc2ccccc2)C(C)CCC4=O)cc(OC)c1OC (stereo not drawn) [No. 684, 3-Benzyl-5-methyl-2-(3,4,5-trimethoxyphenyl)-6,7-dihydro-3H,5H-benzo[4,5]thieno[2,3-d]pyrimidin-4,8-dione] | 24.6 | 63.3 | 9.2 | 11 | 24.7 | 10.5 | – | – | – | – | – | –
10 | COCc1nc2sc3c(c2c(=O)n1Cc1ccccc1)CCCC3=O [No. 31, 3-Benzyl-2-methoxymethyl-6,7-dihydro-3H,5H-benzo[4,5]thieno[2,3-d]pyrimidine-4,8-dione] | 12 | 39.7 | -0.5 | 5.1 | -1.3 | 10.8 | – | – | – | – | – | –
11 | COc1cc(-c2nc3sc4c(c3c(=O)n2CC(C)C)CCC(Br)C4=O)c(Br)c(OC)c1OC (stereo not drawn) [No. 116, 7-Bromo-2-(2-bromo-3,4,5-trimethoxypheny1)-3-isobutyl-6,7-dihydro-3H,5H-benzo[4,5]thieno[2,3-d]pyrimidine-4,8-dione] | 12.5 | 41.4 | 28 | 26.1 | 8.1 | 21.2 | – | – | – | – | – | –
12 | CCCc1nc2sc3c(c2c(=O)n1Cc1ccccc1OC)CCCC3 [No. 94, 3-(2-Methoxybenzyl)-2-propyl-5,6,7,8-tetrahydro-3H-benzo[4,5]thieno[2,3-d]pyrimidin-4-one] | 16.5 | 27.2 | 25.7 | 31.5 | 2.2 | 21.1 | – | – | – | – | – | –
13 | COc1cc(-c2nc3sc4c(c3c(=O)n2Cc2ccccc2)C(C)CCC4)cc(OC)c1OC (stereo not drawn) [No. 683, 3-Benzyl-5-methyl-2-(3,4,5-trimethoxyphenyl)-5,6,7,8-tetrahydro-3H-benzo[4,5]thieno[2,3-d]pyrimidin-4-one] | 16.8 | 32.9 | 9.2 | 18.8 | 8.1 | 37.7 | – | – | – | – | – | –
14 | COc1cc(-c2nc3sc4c(OC(C)=O)cccc4c3c(=O)n2CC(C)C)c(Br)c(OC)c1OC [No. 118, Acetic acid 2-(2-bromo-3,4,5-trimethoxyphenyl)-3-isobutyl-4-oxo-3,4-dihydro-benzo[4,5]-thieno[2,3-d]pyrimidin-8-yl ester] | 31 | 51.5 | 23.6 | 24.4 | 10.8 | 24.4 | – | – | – | – | – | –
15 | COCCn1c(-c2cc(OC)c(OC)c(OC)c2Br)nc2sc3c(O)cccc3c2c1=O [No. 112, 2-(2-Bromo-3,4,5-trimethoxyphenyl)-8-hydroxy-3-(2-methoxyethyl)-3H-benzo[4,5]thieno[2,3-d]pyrimidin-4-one] | 28.3 | 54.4 | 14.6 | 46.3 | 7 | 49.4 | – | – | – | – | – | –
16 | O=c1c2c3c(sc2nc(-c2cccs2)n1Cc1ccccc1)CCCC3 [No. 61, 3-Benzyl-2-thiophen-2-yl-5,6,7,8-tetrahydro-3H-benzo[4,5]thieno[2,3-d]pyrimidin-4-one] | 17.7 | 26.2 | 25.7 | 23.8 | 20 | 26.4 | – | – | – | – | – | –
17 | CCCc1nc2sc3c(c2c(=O)n1Cc1cc(Br)ccc1OC)CCC(Br)(Br)C3=O [No. 97, 7,7-Dibromo-3-(5-bromo-2-methoxybenzyl)-2-propyl-6,7-dihydro-3H,5H-benzo[4,5]thieno[2,3-d]pyrimidine-4,8-dione] | 18.1 | 29.4 | 25.2 | 44.6 | -5.9 | 11.5 | – | – | – | – | – | –
